Legend:
[1] = Silver ion concentration in effluent of water passed through a packed bed of silver material
From the text: In this method, water is passed through a bed of silver chloride which releases silver chloride into the water stream as it flows through the bed.

[2] = Text: Another method of releasing silver ion in a water stream is the use of metal oxides, carbonates, and salts containing silver. These metal salts may include, but are not limited to, metal oxides, metal halides, or metal salts containing silver, and/or metallic silver, or a combination, mixture or alloy of metals containing silver.
Certain embodiments can be designed with internal design elements to compensate for decreasing volume of material as it is used during operation, without the need to use springs and associated hardware.

## [Br][Ag] [Silver Bromide]
[1]
  Effluent Conc. Range Packed Bed (ug Ag^+/l): 5 to 100 µg/L

## [Cl][Ag] [Silver Chloride]
[1]
  Effluent Conc. Range Packed Bed (ug Ag^+/l): 200 to 800 µg/L
[1]; typical, depends on material morphology, temperature, pH
  silver ion in effluent from the AgCl bed: about 100 μg/l
[2]
  Max Theoretical Conc (ug salt/L): 1,900 ug/l
  theoretical solubility limit: about 3 mg/l

Reference: patent US11667552B2, “Silver ion biocide delivery system” (priority 2018, dated 2023)
